# Target: PolQ (1-899) (Homo sapiens (Human), UniProt O75417)
# Test: PolQ ATPase assay (ADP-Glo)
# Assay type: biochemical
# Conditions: not given
# Procedure: The ability of the compounds of the present disclosure to inhibit ATPase activity of PolQ (1-899) was determined using the assay described below.
# PolQ ATPase activity was determined by ADP-Glo assay. 10-point dilution series of compounds were used in a 384 well format for the inhibition assays. PolQ (1-899) (1 nM) in assay buffer (20 mM Tris HCl (pH 8.0), 80 mM KCl, 10 mM MgCl2, 1 mM DTT, 0.01% BSA, 0.01% Tween, 5% glycerol) was transferred to the test wells (20 uL), except the low control wells (20 μL of assay buffer was added to the low control wells). The plate was then incubated at room temperature for 30 min. An equal volume (20 μL) of 100 μM ATP, 150 nM ssDNA containing 50 thymine bases in assay buffer was added to all the test wells. The plates were covered and left to incubate for 60 min. at room temperature before the addition of the ADP Glo detection reagents. After 60 min. incubation, transfer 5 μL reaction mix to another 384-well plate and add 5 μL ADP Glo and plates incubated for 60 min. before addition of 10 μL kinase detection reagent. After the addition of the kinase detection reagent, the plates were covered and incubated for 60 min. and read luminescence on Envision
# Percent inhibition was calculated as follows:
# [formula] • where “Max” is the high control (DMSO) and “Min” is the no enzyme control.
# IC50 values were calculated using a four-parameter logistic curve fit using the following formula: […]
# IC50 values were determined by fitting the data to the standard 4 parameters with Hill Slope using GraphPad Prism software.
# PolQ (1-899), sequence (O75417 1-899): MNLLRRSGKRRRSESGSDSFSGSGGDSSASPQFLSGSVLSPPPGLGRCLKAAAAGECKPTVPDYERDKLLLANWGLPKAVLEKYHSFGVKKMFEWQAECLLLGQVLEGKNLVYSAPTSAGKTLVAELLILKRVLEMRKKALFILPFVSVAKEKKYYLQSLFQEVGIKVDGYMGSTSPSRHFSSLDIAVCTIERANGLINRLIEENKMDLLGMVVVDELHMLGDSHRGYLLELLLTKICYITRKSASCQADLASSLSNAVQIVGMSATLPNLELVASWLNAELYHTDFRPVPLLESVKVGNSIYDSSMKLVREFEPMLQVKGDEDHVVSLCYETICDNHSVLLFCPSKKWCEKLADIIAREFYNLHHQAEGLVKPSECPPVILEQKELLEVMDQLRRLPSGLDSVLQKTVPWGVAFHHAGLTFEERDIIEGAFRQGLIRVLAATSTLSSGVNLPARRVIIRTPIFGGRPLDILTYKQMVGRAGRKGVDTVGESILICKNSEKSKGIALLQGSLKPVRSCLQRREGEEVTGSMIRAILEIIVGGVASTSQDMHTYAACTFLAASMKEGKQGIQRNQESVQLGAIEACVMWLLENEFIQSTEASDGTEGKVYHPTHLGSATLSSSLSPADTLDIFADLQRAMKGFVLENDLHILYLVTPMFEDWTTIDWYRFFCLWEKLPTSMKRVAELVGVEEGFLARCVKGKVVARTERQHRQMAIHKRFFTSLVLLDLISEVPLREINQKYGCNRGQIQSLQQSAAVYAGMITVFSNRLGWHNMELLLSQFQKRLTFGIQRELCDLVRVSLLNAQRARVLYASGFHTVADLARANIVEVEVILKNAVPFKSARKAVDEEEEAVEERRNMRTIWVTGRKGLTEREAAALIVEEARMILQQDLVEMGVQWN
row,IC50 [nM],SMILES
1,10 to 100,"COc1ccc(Cl)c(F)c1-c1cc(C)ncc1C(=O)Nc1nn(CC(=O)N2CC[C@@H](N(C)C)C2)c(=O)s1 [Example 9, 4-(3-Chloro-2-fluoro-6-methoxyphenyl)-N-(4-(2-((R)-3-(dimethylamino)pyrrolidin-1-yl)-2-oxoethyl)-5-oxo-4,5-dihydro-1,3,4-thiadiazol-2-yl)-6-methylnicotinamide]"
2,10 to 100,"COc1ccc(Cl)c(F)c1-c1cc(C)ncc1C(=O)Nc1nn(CC(=O)N2CC[C@H](N(C)C)C2)c(=O)s1 [Example 10, 4-(3-Chloro-2-fluoro-6-methoxyphenyl)-N-(4-(2-((S)-3-(dimethylamino)pyrrolidin-1-yl)-2-oxoethyl)-5-oxo-4,5-dihydro-1,3,4-thiadiazol-2-yl)-6-methylnicotinamide]"
3,10 to 100,"COc1ccccc1-c1cc(C)ncc1C(=O)Nc1nn(CCCCO)c(=O)s1 [Example 24, N-(4-(4-Hydroxybutyl)-5-oxo-4,5-dihydro-1,3,4-thiadiazol-2-yl)-4-(2-methoxyphenyl)-6-methylnicotinamide]"
4,10 to 100,"COc1cnc(Cl)cc1-c1cc(C)ncc1C(=O)Nc1nn(CCCCO)c(=O)s1 [Example 29, 2′-Chloro-N-(4-(4-hydroxybutyl)-5-oxo-4,5-dihydro-1,3,4-thiadiazol-2-yl)-5′-methoxy-6-methyl-[4,4′-bipyridine]-3-carboxamide]"

# Same assay, conditions: inhibition of ATPase activity of PolQ (1-899), 1 nM enzyme, 100 μM ATP, 150 nM ssDNA, ADP-Glo
row,SMILES,IC50 [nM]
1,"COc1ccc(Cl)c(F)c1-c1cc(C)ncc1C(=O)Nc1nn(CCn2cccn2)c(=O)s1 [Example 18, N-(4-(2-(1H-pyrazol-1-yl)ethyl)-5-oxo-4,5-dihydro-1,3,4-thiadiazol-2-yl)-4-(3-chloro-2-fluoro-6-methoxyphenyl)-6-methylnicotinamide]",< 10
2,"COc1ccc(Cl)c(F)c1-c1cc(C)ncc1C(=O)Nc1nn(CC(C)O)c(=O)s1 (stereo not shown) [Example 20, 4-(3-Chloro-2-fluoro-6-methoxyphenyl)-N-(4-(2-hydroxypropyl)-5-oxo-4,5-dihydro-1,3,4-thiadiazol-2-yl)-6-methylnicotinamide]",< 10
3,"CCC(O)Cn1nc(NC(=O)c2cnc(C)cc2-c2c(OC)ccc(Cl)c2F)sc1=O (stereo not shown) [Example 21, 4-(3-Chloro-2-fluoro-6-methoxyphenyl)-N-(4-(2-hydroxybutyl)-5-oxo-4,5-dihydro-1,3,4-thiadiazol-2-yl)-6-methylnicotinamide]",< 10
4,"COc1ccc(Cl)c(F)c1-c1cnccc1C(=O)Nc1nn(CCCCO)c(=O)s1 [Example 22, 3-(3-Chloro-2-fluoro-6-methoxyphenyl)-N-(4-(4-hydroxybutyl)-5-oxo-4,5-dihydro-1,3,4-thiadiazol-2-yl)isonicotinamide]",< 10
5,"COc1ccccc1-n1cncc1C(=O)Nc1nn(CCCCO)c(=O)s1 [Example 23, N-(4-(4-Hydroxybutyl)-5-oxo-4,5-dihydro-1,3,4-thiadiazol-2-yl)-1-(2-methoxyphenyl)-1H-imidazole-5-carboxamide]",> 500
6,"COc1ccc(Cl)cc1-c1cc(C)ncc1C(=O)Nc1nn(CCCCO)c(=O)s1 [Example 25, 4-(5-Chloro-2-methoxyphenyl)-N-(4-(4-hydroxybutyl)-5-oxo-4,5-dihydro-1,3,4-thiadiazol-2-yl)-6-methylnicotinamide]",< 10
7,"COc1ccc(C(F)(F)F)c(F)c1-c1cc(C)ncc1C(=O)Nc1nn(CCCCO)c(=O)s1 [Example 27, 4-(2-Fluoro-6-methoxy-3-(trifluoromethyl)phenyl)-N-(4-(4-hydroxybutyl)-5-oxo-4,5-dihydro-1,3,4-thiadiazol-2-yl)-6-methylnicotinamide]",< 10
8,"COc1ccc(C)c(F)c1-c1cc(C)ncc1C(=O)Nc1nn(CCCCO)c(=O)s1 [Example 28, 4-(2-Fluoro-6-methoxy-3-methylphenyl)-N-(4-(4-hydroxybutyl)-5-oxo-4,5-dihydro-1,3,4-thiadiazol-2-yl)-6-methylnicotinamide]",< 10
9,"COc1ccc(Cl)c(F)c1-c1cc(-c2ccn(C)n2)ncc1C(=O)Nc1nn(CCCCO)c(=O)s1 [Example 30, 4-(3-Chloro-2-fluoro-6-methoxyphenyl)-N-(4-(4-hydroxybutyl)-5-oxo-4,5-dihydro-1,3,4-thiadiazol-2-yl)-6-(1-methyl-1H-pyrazol-3-yl)nicotinamide]",< 10

# The next lines start with the values.
row,IC50 [nM],SMILES
1,< 10,"COCCn1nc(NC(=O)c2cnc(C)cc2-c2c(OC)ccc(Cl)c2F)sc1=O [Example 1, 4-(3-Chloro-2-fluoro-6-methoxyphenyl)-N-(4-(2-methoxyethyl)-5-oxo-4,5-dihydro-1,3,4-thiadiazol-2-yl)-6-methylnicotinamide]"
2,< 10,"COc1ccc(Cl)c(F)c1-c1cc(C)ncc1C(=O)Nc1nn(CC(F)(F)F)c(=O)s1 [Example 2, 4-(3-Chloro-2-fluoro-6-methoxyphenyl)-6-methyl-N-(5-oxo-4-(2,2,2-trifluoroethyl)-4,5-dihydro-1,3,4-thiadiazol-2-yl)nicotinamide]"
3,< 10,"CCn1nc(NC(=O)c2cnc(C)cc2-c2c(OC)ccc(Cl)c2F)sc1=O [Example 3, 4-(3-Chloro-2-fluoro-6-methoxyphenyl)-N-(4-ethyl-5-oxo-4,5-dihydro-1,3,4-thiadiazol-2-yl)-6-methylnicotinamide]"
4,< 10,"COCCCn1nc(NC(=O)c2cnc(C)cc2-c2c(OC)ccc(Cl)c2F)sc1=O [Example 4, 4-(3-Chloro-2-fluoro-6-methoxyphenyl)-N-(4-(3-methoxypropyl)-5-oxo-4,5-dihydro-1,3,4-thiadiazol-2-yl)-6-methylnicotinamide]"
5,< 10,"COCCCCn1nc(NC(=O)c2cnc(C)cc2-c2c(OC)ccc(Cl)c2F)sc1=O [Example 5, 4-(3-Chloro-2-fluoro-6-methoxyphenyl)-N-(4-(4-methoxybutyl)-5-oxo-4,5-dihydro-1,3,4-thiadiazol-2-yl)-6-methylnicotinamide]"
6,< 10,"COc1ccc(Cl)c(F)c1-c1cc(C)ncc1C(=O)Nc1nn(CCO)c(=O)s1 [Example 6, 4-(3-Chloro-2-fluoro-6-methoxyphenyl)-N-(4-(2-hydroxyethyl)-5-oxo-4,5-dihydro-1,3,4-thiadiazol-2-yl)-6-methylnicotinamide]"
7,< 10,"COc1ccc(Cl)c(F)c1-c1cc(C)ncc1C(=O)Nc1nn(CCCO)c(=O)s1 [Example 7, 4-(3-Chloro-2-fluoro-6-methoxyphenyl)-N-(4-(3-hydroxypropyl)-5-oxo-4,5-dihydro-1,3,4-thiadiazol-2-yl)-6-methylnicotinamide]"
8,< 10,"COc1ccc(Cl)c(F)c1-c1cc(C)ncc1C(=O)Nc1nn(CC(=O)O)c(=O)s1 [Example 8, 2-(5-(4-(3-Chloro-2-fluoro-6-methoxyphenyl)-6-methylnicotinamido)-2-oxo-1,3,4-thiadiazol-3(2H)-yl)acetic acid]"
9,< 10,"COc1ccc(Cl)c(F)c1-c1cc(C)ncc1C(=O)Nc1nn(CCC#N)c(=O)s1 [Example 11, 4-(3-Chloro-2-fluoro-6-methoxyphenyl)-N-(4-(2-cyanoethyl)-5-oxo-4,5-dihydro-1,3,4-thiadiazol-2-yl)-6-methylnicotinamide]"
10,< 10,"COc1ccc(Cl)c(F)c1-c1cc(C)ncc1C(=O)Nc1nn(CCCC#N)c(=O)s1 [Example 12, 4-(3-Chloro-2-fluoro-6-methoxyphenyl)-N-(4-(3-cyanopropyl)-5-oxo-4,5-dihydro-1,3,4-thiadiazol-2-yl)-6-methylnicotinamide]"
11,< 10,"COc1ccc(C(F)(F)F)c(F)c1-c1cc(C)ncc1C(=O)Nc1nn(CCCO)c(=O)s1 [Example 13, 4-(2-Fluoro-6-methoxy-3-(trifluoromethyl)phenyl)-N-(4-(3-hydroxypropyl)-5-oxo-4,5-dihydro-1,3,4-thiadiazol-2-yl)-6-methylnicotinamide]"
12,< 10,"COc1ccc(Cl)c(F)c1-c1cc(C)ncc1C(=O)Nc1nn(CCCCO)c(=O)s1 [Example 14, 4-(3-Chloro-2-fluoro-6-methoxyphenyl)-N-(4-(4-hydroxybutyl)-5-oxo-4,5-dihydro-1,3,4-thiadiazol-2-yl)-6-methylnicotinamide]"
13,< 10,"COc1ccc(Cl)c(F)c1-c1cc(C)ncc1C(=O)Nc1nn(CCC(C)(C)O)c(=O)s1 [Example 15, 4-(3-Chloro-2-fluoro-6-methoxyphenyl)-N-(4-(3-hydroxy-3-methylbutyl)-5-oxo-4,5-dihydro-1,3,4-thiadiazol-2-yl)-6-methylnicotinamide]"
14,< 10,"COc1ccc(Cl)c(F)c1-c1cc(C)ncc1C(=O)Nc1nn(CCC(C)O)c(=O)s1 (stereo not shown) [Example 16, 4-(3-Chloro-2-fluoro-6-methoxyphenyl)-N-(4-(3-hydroxybutyl)-5-oxo-4,5-dihydro-1,3,4-thiadiazol-2-yl)-6-methylnicotinamide]"
15,< 10,"COc1ccc(Cl)c(F)c1-c1cc(C)ncc1C(=O)Nc1nn(CC2CC(O)C2)c(=O)s1 (stereo not shown) [Example 17, 4-(3-Chloro-2-fluoro-6-methoxyphenyl)-N-(4-((3-hydroxycyclobutyl)methyl)-5-oxo-4,5-dihydro-1,3,4-thiadiazol-2-yl)-6-methylnicotinamide]"
